Converted amounts (≈) assume the structure as drawn.
Assays:
[1] = system: Aphidius rhopalosiphi; assay: LR50; higher = less toxic; conditions: not reported; mortality
[2] = system: Anas platyrhynchos; conditions: acute; oral; unspecified; mortality
[3] = system: Rattus norvegicus; conditions: for LD50: acute, mortality
[4] = system: Anomia sp.; conditions: acute; duration: 96 hours; mortality
[5] = system: Daphnia magna; conditions: chronic/long-term; duration: 21 days
[6] = system: Tagia sp.
[7] = system: Hypoaspis aculeifer; conditions: chronic/long-term; duration: 14 days; reproduction
[8] = system: Apis mellifera; conditions: acute, mortality
[9] = system: Colinus virginianus
[10] = system: Gammaridae; conditions: chronic/long-term; duration: 28 days
[11] = system: Cyprinodon variegatus; conditions: acute; duration: 96 hours; mortality
[12] = system: Oncorhynchus mykiss; conditions: chronic/long-term; duration: 89 days; mortality
[13] = system: Canidae; conditions: oral, Dog Other

Row | Compound | LR50 [1] | LD50 [2] | LD50 ([3]; oral) | NOAEL ([3]; chronic, duration: 2 years) | NOAEL ([3]; reproduction developmental, organ weight) | LC50 [4] | NOEC [5] | LC50 ([6]; acute, duration: 14 days, mortality) | NOEC ([6]; chronic/long-term, duration: 56 days, reproduction) | NOEC [7] | LD50 ([8]; dermal) | LD50 ([8]; oral, unspecified) | LC50 ([9]; acute, oral, diet, mortality) | NOEC ([9]; chronic) | NOEC [10] | LC50 [11] | NOEC [12] | NOAEL ([13]; chronic, duration: 1 years) | NOAEL ([13]; subchronic, duration: 90 days) | LD50 [3]
1 | CCOc1cc(C(C)(C)C)ccc1C1COC(c2c(F)cccc2F)=N1 (stereo not given) [Etoxazole] | > 55 g/ha | > 2000 mg/kg | > 5000 mg/kg | 4 mg/kg-day | 24.5 mg/kg-day | 4.3 ng/mL (≈ 0.012 µM) | 0.00013 mg/L | > 1000 mg/kg | 5 mg/kg | 0.2 mg/kg | > 200 µg/piece | > 200 µg/piece | 1270 mg/kg-day | 28.6 mg/kg-day | 0.86 mg/kg | > 160 ng/mL | 0.015 mg/L | 5 mg/kg-day | 5 mg/kg-day | 
2 | CCOc1cc(C(C)(C)C)ccc1C(N)COC(=O)c1c(F)cccc1F (stereo not given) |  |  |  |  |  |  |  |  |  |  |  |  |  |  |  |  |  |  |  | > 5000 mg/kg

— EPA's ToxValDB 9.5 (doi:10.2903/j.efsa.2017.4988)
